target: human plasma kallikrein (Homo sapiens (Human), UniProt P03952); assay: In vitro enzyme inhibition of human plasma kallikrein (PFR-AMC cleavage); assay type: biochemical; conditions: Pro-Phe-Arg-AMC substrate, 37° C., read-out: hPK IC50
Method: The ability of the compounds disclosed herein to inhibit human plasma kallikrein activity was quantified according to the procedures below.
A 10 mM solution of the test compound was made in DMSO. […] A control tube containing only DMSO is included. 16 μL of each compound test solution was combined with 384 μL of assay buffer (50 mM Tris-HCl pH 7.5, 150 mM NaCl, 0.01% Triton X-100) to yield a “4× test compound buffer stock”.
These solutions are hereby referred to as 4× hPK and 2×PFR-AMC, respectively.
50 μL was removed from this mixture and placed into duplicate wells on a Microfluor 1Black U-bottom microtiter plate (Thermo Scientific). This plate was incubated for 5 minutes at 37° C. To each well, 50 μL of pre-warmed 2×PFR-AMC was added to start the enzymatic reaction. Cleavage of PFR-AMC was monitored in a Biotek Synergy H4 reader set at 37° C. Readings are taken every 43 seconds for 1 hour. […] The IC50 is calculated using the Gen5 (Biotek Instruments).
The ability of the compounds in Table 3 to inhibit human plasma kallikrein activity was determined.

human plasma kallikrein, sequence (P03952 391-638): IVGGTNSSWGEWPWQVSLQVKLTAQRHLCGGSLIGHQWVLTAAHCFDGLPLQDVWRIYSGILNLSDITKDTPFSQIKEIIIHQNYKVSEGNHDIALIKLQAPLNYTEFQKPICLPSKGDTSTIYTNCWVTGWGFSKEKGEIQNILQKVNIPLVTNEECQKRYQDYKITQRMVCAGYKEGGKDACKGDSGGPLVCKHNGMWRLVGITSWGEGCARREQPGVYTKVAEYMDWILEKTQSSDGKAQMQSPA
human plasma kallikrein, sequence (P03952 20-390 partner): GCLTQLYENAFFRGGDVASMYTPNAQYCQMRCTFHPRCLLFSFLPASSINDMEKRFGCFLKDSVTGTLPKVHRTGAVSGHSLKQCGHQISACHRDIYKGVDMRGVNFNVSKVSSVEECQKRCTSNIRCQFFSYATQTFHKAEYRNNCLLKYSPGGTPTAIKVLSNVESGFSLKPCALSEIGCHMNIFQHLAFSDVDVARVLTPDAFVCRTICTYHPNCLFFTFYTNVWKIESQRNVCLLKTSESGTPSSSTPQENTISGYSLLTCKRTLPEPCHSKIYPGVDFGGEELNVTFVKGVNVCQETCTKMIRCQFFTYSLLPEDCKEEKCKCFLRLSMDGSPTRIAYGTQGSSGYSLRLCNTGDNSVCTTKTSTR

SMILES | IC50 [nM]
CC1=CC2C=NN(Cc3cc(C(=O)NCc4c(C)cc(N)nc4C)ccn3)C2C=C1 (stereo not shown) [Example 201, N-((6-amino-2,4-dimethylpyridin-3-yl)methyl)-2-((5-methyl-3a,7a-dihydro-1H-indazol-1-yl)methyl)isonicotinamide] | < 100
Cc1cc(N)nc(C)c1CNC(=O)c1ccnc(Cn2ncc3cc(Cl)cnc32)c1 [Example 202, N-((6-amino-2,4-dimethylpyridin-3-yl)methyl)-2-((5-chloro-1H-pyrazolo[3,4-b]pyridin-1-yl)methyl)isonicotinamide] | 100 to 1000
Cc1cc(N)nc(C)c1CNC(=O)c1ccnc(Cn2cc3cc(Cl)cnc3n2)c1 [Example 203, N-((6-amino-2,4-dimethylpyridin-3-yl)methyl)-2-((5-chloro-2H-pyrazolo[3,4-b]pyridin-2-yl)methyl)isonicotinamide] | 100 to 1000
O=C(NCc1ccc2ncc(Cl)cn12)c1ccnc(Cc2ccc3ncc(Cl)cc3c2)c1 [Example 206, N-((3-chloropyrrolo[1,2-a]pyrimidin-6-yl)methyl)-2-((3-chloroquinolin-6-yl)methyl)isonicotinamide] | > 10000
Cc1cc(N)nc(C)c1CNC(=O)c1cc(C#N)nc(Cc2ccc3ncc(Cl)cc3c2)c1 [Example 207, N-((6-amino-2,4-dimethylpyridin-3-yl)methyl)-2-((3-chloroquinolin-6-yl)methyl)-6-cyanoisonicotinamide] | < 100
Cc1nc(N)ccc1CNC(=O)c1ccnc(Cc2cnc3cc(F)c(Cl)cc3c2)c1 [Example 227, N-((6-amino-2-methylpyridin-3-yl)methyl)-2-((6-chloro-7-fluoroquinolin-3-yl)methyl)isonicotinamide] | < 100
Cc1nc(N)ccc1C(C)NC(=O)c1ccnc(Cc2ccc3ncc(Cl)cc3c2)c1 (stereo not shown) [Example 237, N-(1-(6-amino-2-methylpyridin-3-yl)ethyl)-2-((3-chloroquinolin-6-yl)methyl)isonicotinamide] | 1000 to 10000
COCCNc1ccc(CNC(=O)c2ccnc(Cc3ccc4ncc(Cl)cc4c3)c2)c(C)n1 [Example 242, 2-((3-chloroquinolin-6-yl)methyl)-N-((6-((2-methoxyethyl)amino)-2-methylpyridin-3-yl)methyl)isonicotinamide] | 100 to 1000
Cc1cc(N)nc(C)c1CNC(=O)c1ccnc(Cc2ccc3ncc(C(N)=O)cc3c2)c1 [Example 250, 6-((4-(((6-amino-2,4-dimethylpyridin-3-yl)methyl)carbamoyl)pyridin-2-yl)methyl)quinoline-3-carboxamide] | 100 to 1000
Cc1nc(N)ccc1CNC(=O)c1ccnc(Cc2ccc3ncc(C(N)=O)cc3c2)c1 [Example 251, 6-((4-(((6-amino-2-methylpyridin-3-yl)methyl)carbamoyl)pyridin-2-yl)methyl)quinoline-3-carboxamide] | 1000 to 10000
O=C(NCc1cnc2ncc(Cl)cn12)c1ccnc(Cc2ccc3ncc(Cl)cc3c2)c1 [Example 256, N-((6-chloroimidazo[1,2-a]pyrimidin-3-yl)methyl)-2-((3-chloroquinolin-6-yl)methyl)isonicotinamide] | > 10000
Cc1cc(N)nc(C)c1CNC(=O)c1ccnc(Cc2ccc3ncc(CO)cc3c2)c1 [Example 257, N-((6-amino-2,4-dimethylpyridin-3-yl)methyl)-2-((3-(hydroxymethyl)quinolin-6-yl)methyl)isonicotinamide] | < 100
O=C(NCc1cc2cc[nH]c2cc1F)c1ccnc(Cc2ccc3ncc(Cl)cc3c2)c1 [Example 259, 2-((3-chloroquinolin-6-yl)methyl)-N-((6-fluoro-1H-indol-5-yl)methyl)isonicotinamide] | 100 to 1000
Cc1n[nH]c2ccc(CNC(=O)c3ccnc(Cc4ccc5ncc(Cl)cc5c4)c3)cc12 [Example 261, 2-((3-chloroquinolin-6-yl)methyl)-N-((3-methyl-1H-indazol-5-yl)methyl)isonicotinamide] | 1000 to 10000
Cc1n[nH]c2ncc(CNC(=O)c3ccnc(Cc4ccc5ncc(Cl)cc5c4)c3)cc12 [Example 266, 2-((3-chloroquinolin-6-yl)methyl)-N-((3-methyl-1H-pyrazolo[3,4-b]pyridin-5-yl)methyl)isonicotinamide] | 1000 to 10000
O=C(NCc1c[nH]c2ccc(Cl)cc12)c1ccnc(Cc2ccc3ncc(Cl)cc3c2)c1 [Example 268, N-((5-chloro-1H-indol-3-yl)methyl)-2-((3-chloroquinolin-6-yl)methyl)isonicotinamide] | 100 to 1000
O=C(NCc1cnc2[nH]nc(C(F)(F)F)c2c1)c1ccnc(Cc2ccc3ncc(Cl)cc3c2)c1 [Example 271, 2-((3-chloroquinolin-6-yl)methyl)-N-((3-(trifluoromethyl)-1H-pyrazolo[3,4-b]pyridin-5-yl)methyl)isonicotinamide] | 100 to 1000
Cc1nc(N)ccc1CNC(=O)c1ccnc(Cc2cc(-c3nnn[nH]3)c3ncc(Cl)cc3c2)c1 [Example 273, N-((6-amino-2-methylpyridin-3-yl)methyl)-2-((3-chloro-8-(1H-tetrazol-5-yl)quinolin-6-yl)methyl)isonicotinamide] | 100 to 1000
Cc1cc(N)nc(C)c1CNC(=O)c1ccnc(C(=O)c2ccc3ncc(Cl)cc3c2)c1 [Example 274, N-((6-amino-2,4-dimethylpyridin-3-yl)methyl)-2-(3-chloroquinoline-6-carbonyl)isonicotinamide] | 100 to 1000
CCc1cnc2ccc(Cc3cc(C(=O)NCc4cc5c(Cl)c[nH]c5cc4F)ccn3)cc2c1 [Example 280, N-((3-chloro-6-fluoro-1H-indol-5-yl)methyl)-2-((3-ethylquinolin-6-yl)methyl)isonicotinamide] | < 100
CCc1cnc2ccc(Cc3cc(C(=O)NCc4ccc5[nH]cc(Cl)c5c4F)ccn3)cc2c1 [Example 282, N-((3-chloro-4-fluoro-1H-indol-5-yl)methyl)-2-((3-ethylquinolin-6-yl)methyl)isonicotinamide] | < 100

The next lines start with the values.

IC50 [nM] | SMILES
< 100 | Cc1nc(N)ccc1CNC(=O)c1ccnc(Cc2cnc3ncc(Cl)cc3c2)c1 [Example 205, N-((6-amino-2-methylpyridin-3-yl)methyl)-2-((6-chloro-1,8-naphthyridin-3-yl)methyl)isonicotinamide]
100 to 1000 | Cc1nc(N)ccc1CNC(=O)c1cc(Cc2cnc3ncc(Cl)cc3c2)ncc1C#N [Example 216, N-((6-amino-2-methylpyridin-3-yl)methyl)-2-((6-chloro-1,8-naphthyridin-3-yl)methyl)-5-cyanoisonicotinamide]
< 100 | Cc1nc(N)ccc1CNC(=O)c1ccnc(Cc2cc(N)c3ncc(Cl)cc3c2)c1 [Example 218, N-((6-amino-2-methylpyridin-3-yl)methyl)-2-((8-amino-3-chloroquinolin-6-yl)methyl)isonicotinamide]
< 100 | O=C(NCc1n[nH]c2ccc(Cl)cc12)c1ccnc(Cc2ccc3ncc(C(F)(F)F)cc3c2)c1 [Example 233, N-((5-chloro-1H-indazol-3-yl)methyl)-2-((3-(trifluoromethyl)quinolin-6-yl)methyl)isonicotinamide]
> 10000 | Cc1nc(NCCO)ccc1CNC(=O)c1ccnc(Cc2ccc3ncc(Cl)cc3c2)c1 [Example 252, 2-((3-chloroquinolin-6-yl)methyl)-N-((6-((2-hydroxyethyl)amino)-2-methylpyridin-3-yl)methyl)isonicotinamide]
100 to 1000 | Cc1nc(N)ccc1CNC(=O)c1ccnc(Cc2ccc3ncc(CO)cc3c2)c1 [Example 258, N-((6-amino-2-methylpyridin-3-yl)methyl)-2-((3-(hydroxymethyl)quinolin-6-yl)methyl)isonicotinamide]
< 100 | Cc1cc(N)nc(C)c1CNC(=O)c1ccnc(Cc2ccc3ncc(C(C)O)cc3c2)c1 (stereo not shown) [Example 262, N-((6-amino-2,4-dimethylpyridin-3-yl)methyl)-2-((3-(1-hydroxyethyl)quinolin-6-yl)methyl)isonicotinamide]
100 to 1000 | Cc1nc(N)ccc1CNC(=O)c1ccnc(Cc2ccc3ncc(C(C)O)cc3c2)c1 (stereo not shown) [Example 263, N-((6-amino-2-methylpyridin-3-yl)methyl)-2-((3-(1-hydroxyethyl)quinolin-6-yl)methyl)isonicotinamide]
< 100 | COc1cnc2ccc(Cc3cc(C(=O)NCc4ccc(N)nc4C)ccn3)cc2c1 [Example 265, N-(6-amino-2-methyl-pyridin-3-ylmethyl)-2-(3-methoxy-quinolin-6-ylmethyl)-isonicotinamide]
1000 to 10000 | O=C(NCc1ccc2[nH]nc(C(F)(F)F)c2c1)c1ccnc(Cc2ccc3ncc(Cl)cc3c2)c1 [Example 267, 2-((3-chloroquinolin-6-yl)methyl)-N-((3-(trifluoromethyl)-1H-indazol-5-yl)methyl)isonicotinamide]
1000 to 10000 | O=C(NCc1c[nH]c2ncc(Cl)cc12)c1ccnc(Cc2ccc3ncc(Cl)cc3c2)c1 [Example 269, N-((5-chloro-1H-pyrrolo[2,3-b]pyridin-3-yl)methyl)-2-((3-chloroquinolin-6-yl)methyl)isonicotinamide]
100 to 1000 | Cc1[nH]c2ccc(Cl)cc2c1CNC(=O)c1ccnc(Cc2ccc3ncc(Cl)cc3c2)c1 [Example 270, N-((5-chloro-2-methyl-1H-indol-3-yl)methyl)-2-((3-chloroquinolin-6-yl)methyl)isonicotinamide]
< 100 | CCc1cnc2ccc(Cc3cc(C(=O)NCc4cnc5[nH]cc(Cl)c5c4)ccn3)cc2c1 [Example 281, N-((3-chloro-1H-pyrrolo[2,3-b]pyridin-5-yl)methyl)-2-((3-ethylquinolin-6-yl)methyl)isonicotinamide]
